The target of the assay is Serotonin 5HT7 receptors (Homo sapiens (Human), UniProt P34969). Briefly: Radiolabel Binding Studies for Serotonin 5HT7 receptors. The following applies: for inhibition at 10 µM: read-out: 5-HT7 % inhib @ 10 uM; for IC50: radioligand competition binding, membranes of cells expressing recombinant 5HT7 receptors. As to the method:
Radiolabel Binding Studies for Scrotonin 5HT7 Receptors, Method 1:
Eleven dilutions (5× assay concentration) of the compound of the disclosure and chlorpromazine are prepared in the Assay Buffer by serial dilution to yield final corresponding assay concentrations ranging from 10 pM to 10 μM.
A stock concentration of 5 nM [^3H]LSD (lysergic acid diethyl amide) is prepared in 50 mM Tris-HCl, 10 mM MgCl2, 1 mM EDTA, pH 7.4 (Assay Buffer). Aliquots (50 μl) of radioligand are dispensed into the wells of a 96-well plate containing 100 μl of Assay Buffer. Duplicate 50-μl aliquots of the compound of the disclosure test and chlorpromazine positive control reference compound serial dilutions are added.
Membrane fractions of cells expressing recombinant 5HT7 receptors (50 μL) are dispensed into each well. The membranes are prepared from stably transfected cell lines expressing 5HT7 receptors cultured on 10-cm plates by harvesting PBS-rinsed monolayers, resuspending and lysing in chilled, hypotonic 50 mM Tris-HCl, pH 7.4, centrifuging at 20,000×g, decanting the supernatant and storing at −80° C.; the membrane preparations are resuspended in 3 ml of chilled Assay Buffer and homogenized by several passages through a 26 gauge needle before using in the assay.
The 250-μl reactions are incubated at room temperature for 1.5 hours, then harvested by rapid filtration onto 0.3% polyethyleneimine-treated, 96-well filter mats using a 96-well Filtermate harvester. Four rapid 500-μl washes are performed with chilled Assay Buffer to reduce non-specific binding. The filter mats are dried, then scintillant is added to the filters and the radioactivity retained on the filters is counted in a Microbeta scintillation counter.
Raw data (dpm) representing total radioligand binding (i.e., specific+non-specific binding) are plotted as a function of the logarithm of the molar concentration of the competitor (i.e., test or reference compound).
Radiolabel Binding Studies for Serotonin 5-HT7 Receptors, Method 2:
A stock concentration of 5 nM [^3H]-5-Hydroxytryptamine ([^3H]-5HT) is prepared in 50 mM Tris-HCl, 10 mM MgCl2, 1 mM EDTA, pH 7.4 (Assay Buffer). Aliquots (50 μl) of radioligand are dispensed into the wells of a 96-well plate containing 100 μl of Assay Buffer. Duplicate 50-μl aliquots of the compound of the disclosure test and chlorpromazine positive control reference compound serial dilutions are added.
Membrane fractions of cells expressing recombinant 5HT7 receptors (50 μL) are dispensed into each well. The membranes are prepared from stably transfected cell lines expressing 5HT7 receptors cultured on 10-cm plates by harvesting PBS-rinsed monolayers, resuspending and lysing in chilled, hypotonic 50 mM Tris-HCl, pH 7.4, centrifuging at 20,000×g, decanting the supernatant and storing at −80° C.; the membrane preparations are resuspended in 3 ml of chilled Assay Buffer and homogenized by several passages through a 26 guage needle before using in the assay.

For orientation: IC50 means the concentration that gives 50% inhibition.

Each structure is given as a SMILES string.

As for `O=C1OC(CCN2CCN(c3ccc4[nH]ccc4c3)CC2)CC12CCCC2` (stereo not shown) [Entry 160147], the inhibition at 10 µM came out at 99.6%.

For the compound `O=C1OC(CCN2CCN(c3ccnc(Cl)c3)CC2)CC12CCCCC2` (stereo not shown) [Entry 160153], the “5-HT7 % inhib @ 10 uM” value (single concentration of 10 uM, percent inhibition of radioligand binding) stood at 58.2%.

In the case of `COc1ccnc(N2CCN(CCC3CC4(CCCC4)C(=O)O3)CC2)c1` (stereo not shown) [Entry 230009], the IC50 came out at 124 nM and the inhibition at 10 µM was determined as 90%.

For the compound `COc1ccc(N2CCN(CC[C@@H]3CC(C)(C)C(=O)O3)CC2)cc1` [Entry 230039], the IC50 is 1000 nM.

Turning to `COc1ccc(N2CCN(CC[C@H]3CC(C)(C)C(=O)O3)CC2)cc1` [Entry 230046], the IC50 is 1000 nM.

As for `CCC1(CC)CC(CCCN2CCN(c3ccc(OC)cc3)CC2)OC1=O` (stereo not shown) [Entry 230060], the IC50 was found to be 1000 nM.

As to `CCC1(CC)CC(CCN2CCN(c3ccc4nc(C(F)(F)F)[nH]c4c3)CC2)OC1=O` (stereo not shown) [Entry 230068], the IC50 was 1000 nM.

Regarding `CCC1(CC)CC(CCN2CCN(c3ccc4nc(C)[nH]c4c3)CC2)OC1=O` (stereo not shown) [Entry 230069], the IC50 worked out at 1000 nM and the inhibition at 10 µM was determined as 15.9%.
